Assay results reported in US20240172744A1, “H[…] SOLUTION FOR REPAIRING KIDNEY INJURY AND USE THEREOF” (WUHAN UNIVERSITY, priority 2022, published 2024).

What was measured:
[1] = test system: kidney from a donation after circulatory death donor of a rat; assay: hypothermic oxygenated perfusion of rat donation-after-circulatory-death kidney ex-vivo, perfusion parameters (intrarenal resistance); conditions: Examples 1-4: 200, 400, 600, 800 μM in KPS-1 solution, warm ischemia 30, 45, 60, 90 min, 0-4 °C, 30 mmHg, 2 h perfusion, FIGS. 2A-2D
Procedure: The method for performing hypothermic oxygenated perfusion on a kidney from a donation after circulatory death donor of a rat by using the perfusion fluid according to the examples of the present invention specifically includes the following steps: for a donor organ donated after a cardiac death, in the kidney acquisition process, performing in-situ organ lavage by using heparin sodium saline with a temperature of 4° C. to effectively remove thrombus in large blood vessels and to relieve the obstacle of the thrombus to the delivery of carbon monoxide released by carbon monoxide-releasing molecules to the kidney, combining ex-vivo hypothermic oxygenated perfusion with the carbon monoxide released by the carbon monoxide-releasing molecules to specifically achieve the vasodilation, the removal of microthrombus and the recovery of the patency of the microcirculation, and evaluating the function and quality of the kidney through perfusion parameters (perfusion flow and intrarenal resistance) and a macroscopic kidney state, wherein the perfusion parameters can reflect the kidney function to a certain degree; a kidney with a good function can be subjected to allogeneic kidney transplantation and a kidney with a poor function will be discarded. […]

[2] = test system: kidney from a donation after circulatory death donor of a rat; assay: H&E pathological examination of renal tissues after 2 h of kidney perfusion; conditions: Examples 1-4: 200, 400, 600, 800 μM in KPS-1 solution; warm ischemia 30, 45, 60, 90 min; after 2 h perfusion; FIGS. 3A-3D
Procedure: After 2 h of kidney perfusion according to the methods of Examples 1-4, 1 cm^3 of renal tissues were taken out and fixed in neutral formaldehyde for storage, and then dehydrated, embedded in paraffin, sectioned and then stained by H&E, and finally photographed under a microscope to observe morphological changes and pathological analysis of tissues.

## carbon monoxide-releasing molecules-401
[1]; listed as carbon monoxide-releasing molecule
  intrarenal resistance during hypothermic oxygenated perfusion: continuously decrease
[1]; listed as carbon monoxide-releasing molecules
  intrarenal resistance during hypothermic oxygenated perfusion: significantly reduced and maintained to be stable
[2]
  pathological examination of renal tissues (glomeruli, renal tubules, renal interstitium; H&E): no obvious abnormality found
